The record followed here is PMC12005787, “Synthetic Lethality of SHP2 and XIAP Suppresses Proliferation and Metastasis in KRAS‐mutant Nonsmall Cell Lung Cancer” (Advanced Science, 2025).

Assay type in all cases: binding
In assay [1] the target is T1, XIAP (Homo sapiens, UniProt P98170).
T1 construct: endogenous in cells; host or cells: NCI-H2122
The experiment in a line: Cellular thermal shift assay (CETSA). The note with it: 56 and 62 ℃. How it is done: (§1) NCI‐H2122 cells were harvested and resuspended with pre‐cooled PBS containing 1% cocktail, which was then frozen in liquid nitrogen for 5 min and thawed in a water bath at 37 °C for 5 min for three repetitions. The supernatant was collected via centrifugation at 4 °C (15 000 × g, 20 min), divided into two equal portions; one was added with test drugs or various concentrations of embelin, and the other was added with DMSO as control and subsequently incubated at 25 °C for 30 min. All samples were heated at temperatures ranging from 52–70 °C for 3 min, and subsequently in an ice bath for 3 min and collected by centrifugation at 4 °C (15 000 × g, 20 min), and added with protein sampling buffer at 100 °C for 5 min, followed by analysis of protein stability using western blotting.

The target in assay [2] is T2, SHP2 (Homo sapiens, UniProt Q06124).
T2 construct: endogenous in cells; host or cells: NCI-H2122
T2 sequence (Q06124 1-593): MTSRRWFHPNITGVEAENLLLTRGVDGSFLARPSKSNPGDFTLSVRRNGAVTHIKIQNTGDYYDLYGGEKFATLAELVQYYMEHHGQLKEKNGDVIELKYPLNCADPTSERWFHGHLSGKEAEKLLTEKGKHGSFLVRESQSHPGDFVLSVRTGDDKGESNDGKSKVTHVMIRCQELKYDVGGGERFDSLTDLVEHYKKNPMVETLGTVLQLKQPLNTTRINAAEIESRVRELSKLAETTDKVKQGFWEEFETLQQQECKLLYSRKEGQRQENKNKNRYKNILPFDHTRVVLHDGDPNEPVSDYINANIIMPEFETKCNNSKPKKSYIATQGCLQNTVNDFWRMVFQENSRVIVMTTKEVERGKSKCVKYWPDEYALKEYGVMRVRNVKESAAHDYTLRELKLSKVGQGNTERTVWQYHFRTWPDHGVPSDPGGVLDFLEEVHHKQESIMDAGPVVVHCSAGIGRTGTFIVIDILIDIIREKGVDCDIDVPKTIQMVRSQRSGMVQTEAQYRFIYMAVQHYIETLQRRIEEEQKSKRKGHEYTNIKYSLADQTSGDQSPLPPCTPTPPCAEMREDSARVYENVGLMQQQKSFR
The assay is described as follows: Cellular thermal shift assay (CETSA). The note with it: NCI‐H2122 cell lysate. As to the method:
as §1

Assay [3] concerns the target T3, His‐SHP2 (Homo sapiens, UniProt Q06124).
T3 construct: His; made in house; host or cells: E. coli
The assay is described as follows: Isothermal titration calorimetry. To be noted: read-out: KD value (ITC). How it is done:
(§2) The purified His‐ΔSHP2, His‐SHP2, or His‐ΔSHP2^K325A proteins were dialyzed overnight in dialysis buffer (20 mM HEPES, 0.15 M NaCl, 1 mM TCEP, 10% glycerol, pH 7.5). The protein concentration was determined using the BCA Protein Assay Kit, and the purity of the proteins was detected by Coomassie Brilliant Blue staining. ITC experiments were performed when the protein concentration was higher than 2 mg mL^−1 and the purity was greater than 90%. The instrument (Malvern Instruments, USA) was considered to be functioning optimally for compound and protein titration experiments when the DP value was < 0.05 µcal s^−1 by the water droplet experiment. After the sample cell was cleaned twice with protein dialysis buffer, a protein sample (300 µL) was loaded to the sample cell, an equal amount of ultrapure water was added to the reference cell, and the compound solution dissolved with the same dialysis buffer was put into the corresponding cell, in which the protein‐compound molar ratio was 1:10–1:20. The parameters were adjusted based on the curve‐fitting results to determine the optimal binding concentration gradient. Based on the exothermic changes in the reaction, the entropy increase and enthalpy change were analyzed using software fitting to obtain parameters such as the binding coefficient and affinity constant between the small molecules and proteins.
(ITC needs no label: the signal is the heat of the interaction.)

Assay [4] concerns the target T4, His‐ΔSHP2 (Homo sapiens, UniProt Q06124).
T4 construct: His‐ΔSHP2, encompassing the peptide from amino acids 205–593 retaining PTP activity; His; made in house; host or cells: E. coli
T4 sequence (Q06124 205-593): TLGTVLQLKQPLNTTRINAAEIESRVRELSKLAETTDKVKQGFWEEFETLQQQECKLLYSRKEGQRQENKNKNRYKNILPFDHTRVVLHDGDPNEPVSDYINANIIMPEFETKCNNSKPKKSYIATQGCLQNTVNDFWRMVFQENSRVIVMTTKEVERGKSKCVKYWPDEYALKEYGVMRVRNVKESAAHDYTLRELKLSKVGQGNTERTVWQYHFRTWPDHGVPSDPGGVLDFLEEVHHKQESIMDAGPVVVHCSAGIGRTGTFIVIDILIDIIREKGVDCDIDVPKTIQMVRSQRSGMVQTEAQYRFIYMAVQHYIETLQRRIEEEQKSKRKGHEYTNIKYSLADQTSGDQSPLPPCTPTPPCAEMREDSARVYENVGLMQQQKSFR
The experiment in a line: Isothermal titration calorimetry. To be noted: read-out: KD value (ITC). How it is done:
as §2

Structures are written as SMILES. pKd: −log10 of the molar value.

T1 sequence (P98170 whole entry): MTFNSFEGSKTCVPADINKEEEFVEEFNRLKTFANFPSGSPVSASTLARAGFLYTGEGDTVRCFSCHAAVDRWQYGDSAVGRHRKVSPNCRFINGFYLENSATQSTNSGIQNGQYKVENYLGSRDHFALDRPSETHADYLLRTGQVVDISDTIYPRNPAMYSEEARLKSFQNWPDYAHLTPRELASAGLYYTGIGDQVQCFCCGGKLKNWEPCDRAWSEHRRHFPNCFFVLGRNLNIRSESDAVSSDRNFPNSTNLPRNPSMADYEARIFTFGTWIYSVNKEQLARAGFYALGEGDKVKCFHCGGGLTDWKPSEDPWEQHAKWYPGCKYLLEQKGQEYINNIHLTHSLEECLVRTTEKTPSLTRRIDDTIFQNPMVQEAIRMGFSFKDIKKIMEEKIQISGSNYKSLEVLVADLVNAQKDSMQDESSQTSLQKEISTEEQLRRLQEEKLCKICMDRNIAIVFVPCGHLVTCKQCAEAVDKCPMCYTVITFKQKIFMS

With `CC1(N)CCN(c2cnc(-c3cccc(Cl)c3Cl)c(N)n2)CC1` [SHP099], the “effect on XIAP protein stability (CETSA)” value in assay [1] was “did not affect XIAP protein stability”.

Broadly, the pKd is −log10 of the Kd, conventionally taken in molar units. In the case of `CCCCCCCCCCCC1=C(O)C(=O)C=C(O)C1=O` [Embelin], the “effect on SHP2 protein stability (CETSA)” value in assay [2] is recorded as “increased the stability of SHP2 protein”. Besides, the pKd in assay [3] is 7.64; in assay [4], 6.66.
